Literature values, collected in US8313936B2, “Nucleic acids and polypeptides involved in the production of cryptophycin” (priority 2006, dated 2012).

Details: assay not specified; U.S. Publication No. 20020065261

## COc1ccc(C[C@H]2NC(=O)/C=C/C[C@@H]([C@H](C)[C@H]3O[C@@H]3c3ccccc3)OC(=O)[C@H](CC(C)C)OC(=O)[C@H](C)CNC2=O)cc1Cl [Cryptophycin 1]
  activity relative to other cryptophycins: the most active natural compound
